According to patent US20070225213A1, “Nucleic acid carriers for delivery of therapeutic agents” (priority 2006, published 2007):
Like-named read-outs stand apart in the source and are kept apart here.

What was measured:
[1] = intravenous administration; cited from earlier work
[2] = DNA addition method: NAC complexed vs unbound MTN in mouse urine (Example 17)
Description: To determine if NAC-MTN was excreted in urine as a complex, MTN fluorescence due to unbound NAC was assayed by an addition method. DNA was added to urine from both groups and subsequent change in fluorescence was measured.

[3] = In vivo MTN distribution in organs after single i.v. dose (Example 15, EX102005); parameters: species or system mice; details: iv, 0.075 mg MTN per mouse i.v.
Description: Procedure: Prior to formulation of MTN with carrier, the DNA carrier was standardized and assayed for loading limits with MTN by absorbance spectrometry. […] Herring sperm […] […] One milliliter (1 ml) of each homogenate was then transferred to a 1.7 ml centrifuge tube and centrifuged for 10 min at 10000 rcf. Supernatants were removed and fluorescence of 0.3 ml of samples was read at 620/680 nm s=50. […] Total MTN was calculated by converting fluorescence data to mg/ml MTN using a MTN standard curve. The mg/ml MTN was then multiplied by total vol. homogenate to obtain total MTN per organ.

3T3 = experiment: Toxicity of NAC-MTN vs CD-MTN and MTN, MTT (Example 9, EX042105); assay type: cell-based, mouse
Description: FIG. 4. […] The relative toxicity of NAC-MTN was compared with MTN and CD-MTN in four cell lines, MCF7(breast cancer), COS7green monkey kidney (SV40 transformed), 3T3 (mouse fibroblast), and BHK21(hamster kidney). Cells were treated with identical amounts of MTN formulated as either NAC-MTN, MTN only, or poly-beta-cyclodextrin-sulfylbutylether(CD-MTN). After an incubation period, cell viability was assayed with MTT assay. The differences in toxicity between NAC-MTN and MTN or NAC-MTN and CD-MTN are shown as % difference. Greater percentage difference correlates to more reduction in relative NAC-MTN toxicity.
MCF7, COS7, 3T3, and BHK21 cells were plated out in duplicate rows of equivalent cell density in 100ul final volume. Initial cell densities were 2000 cells/well.
Preparing NAC-MTN, CD-MTN, and MTN only. Combined 180 ul of 0.05 mg/ml MTN with […] 0.1 mg/ml herring sperm genomic DNA (HSGDNA, Promega), 1500 ul of 2× DMEM media containing 20% FBS to give 3.0 ml final volume and 12% final drug loading in the dsDNA. For MTN only, 180 ul of MTN was combined with 1320 ul H2O and 1500 ul 2× DMEM. […]
Aspirated media in plate and replaced with 50 ul of 0.5 mg/ml MTT in 1× media, incubated 3 hours, aspirated, air dried 5 min and dissolved in 100 ul of isopropyl, read OD at A570. […]

MCF7 = experiment: Effect of plating time on uptake of NAC-MTN and MTN, fluorescence (Example 11); assay type: cell-based, human
Description: The effect of plating time on the differential rates of uptake between NAC-MTN and MTN were assayed in cells treated <1 hour and 24 hours after plating.
On day 1, MCF7, COS7, 3T3, and BHK21 cells were plated out in a standard tissue culture plate. After incubation of 20 minutes samples were added to cells in rows A, C, E, and G. Cells were incubated at 37C in a standard atmosphere of 5%CO2.
On day 2, samples were added to rows D, F, and H and the fluorescence was obtained EX620/EM680 S=80. Samples were removed from A,C,E and G, replaced with media and fluorescence read again. On day 2 observed significant drug toxicity in cells of rows A,C, E, G. Sample addition was postponed in row B since MCF7 were not yet confluent.
On day 3, added samples to cells in row B containing confluent MCF7's, removed samples from rows D, F, and H replaced with media and read fluorescence.
Fluorescence data from cells taken after removal of media was used to quantitate total MTN retained in the cells. Fluorescence data were converted to mg/ml MTN using a standard curve prepared with free MTN or NAC-MTN.
The percentage difference in fluorescence between cells treated with NAC-MTN or MTN alone was used to compare relative drug uptake.
The MTN fluorescence ratios were obtained by dividing MTN fluorescence of cells incubated for 24 hours by fluorescence of cells incubated 30 minutes. […] The uptake in BHK21 was roughly equivalent for NAC-MTN regardless of plate adherence, however it should be noted that BHK21 adhere very rapidly to the plate.
Fluorescence data were converted to micromolar drug concentrations (uM MTN) using a standard curve for either nucleic acid bound or unbound drug, and drug uptake ratios were obtained by dividing the t(24 hour)/t(30 min.). The ratios of absolute drug concentration per well show more dramatic differences in uptake as shown below.

O=C1c2c(O)ccc(O)c2C(=O)c2c(NCCNCCO)ccc(NCCNCCO)c21 [MTN, mitoxantrone]
elimination half life [1]: 12 days
% Change Fluor. on DNA addition to urine ([2]; Elapsed Time 2.5 hr): 83%
% Change Fluor. on DNA addition to urine ([2]; Elapsed Time 5 hr): 66%
% Change Fluor. on DNA addition to urine ([2]; Elapsed Time 8 hr): 71%
concentration at 1 h ([3]; heart, read-out: Density of MTN in tissue: Heart): 96000 ng/g
concentration at 1 h ([3]; kidney, read-out: Density of MTN in tissue: Kidney): 49000 ng/g
concentration at 1 h ([3]; liver, read-out: Density of MTN in tissue: Liver): 10000 ng/g
concentration at 1 h ([3]; lung, read-out: Density of MTN in tissue: Lung): 43000 ng/g
% tox. relative to media only (3T3; 2 uM final MTN, MTT 48 hours after adding samples): 37.57%
toxic effect (3T3; after 24 hours, 2 uM MTN): no toxic effect
MTN FLUOR Ratio of t(24)/t(<1) (MCF7): 0.75
FLUOR (MTN fluorescence in cells) (MCF7; cells treated 24 hour after plating): 18819
FLUOR (MTN fluorescence in cells) (MCF7; cells treated <1 hour after plating): 16651
Ratio uM MTN of t(24)/t(<1) (MCF7; from standard curve for bound or unbound drug): 1.2
